Source: patent US20100227921A1, “AMINO ACID AND PEPTIDE CARBAMATE PRODRUGS OF […] USES THEREOF” (SHIRE LLC, priority 2009, published 2010)

Assays:
[1] = Stability of tapentadol valine carbamate in simulated gastric and intestinal fluids, water and pH 10 buffer; assay type: physicochemical
[2] = 75 mg immediate release dosage; Afilalo et al. 2008; cited from earlier work

Structure (SMILES)	Simulated gastric fluid (pH 1.1): % remaining after 2 h/37° C. ([1]; USP simulated gastric fluid pH 1.1, 2 h, 37° C., HPLC)	Simulated intestinal fluid (pH 6.8): % remaining after 2 h/37° C. ([1]; USP simulated intestinal fluid pH 6.8, 2 h, 37° C., HPLC)	Distilled water (pH 5.9): % remaining after 2 h/20° C. ([1]; distilled water pH 5.9, 2 h, 20° C.)	pH 10.0 buffer: % remaining after 2 h/20° C. ([1]; pH 10.0 buffer, 2 h, 20° C.)	stability under the conditions existing in the GI tract ([1]; summary in words of Table 2)	patients with nausea/vomiting [2]	treated patients with constipation [2]
CC[C@H](c1cccc(OC(=O)N[C@H](C(=O)O)C(C)C)c1)[C@H](C)CN(C)C (racemic) [Tapentadol valine carbamate, 2-[3-(3-Dimethylamino-1-ethyl-2-methyl-propyl)-phenoxycarbonylamino]-3-methyl-butyric acid]	100%	100%	100%	82%	stable	–	–
CC[C@@H](c1cccc(O)c1)[C@@H](C)CN(C)C (racemic) [Tapentadol, (−)-(1R,2R)-3-(3-dimethyl-amino-1-ethyl-2-methyl-propyl)-phenol]	–	–	–	–	–	30-35%	~11%
